Values of other authors, collected in patent US20170313932A1, “SYNTHETIC ACID COMPOSITIONS ALTERNATIVES TO CONVENTIONAL ACIDS IN THE OIL AND GAS INDUSTRY” (FLUID ENERGY GROUP LTD., priority 2014, published 2017).

Test system: Life and Health

Cl [Hydrogen chloride gas, Hydrogen chloride]
Level Immediately Dangerous to Life and Health (IDHL): above 50 PPM
Level at which death can occur (gas exposure, death in 2-3 minutes): 1300-2000 parts per million (PPM)
